The values below come from patent publication US20250382297A1, “INHIBITORS OF FGFR2 AND FGFR3 AND USES THEREOF” (Insilico Medicine IP Limited, priority 2022, published 2025).

In one experiment the target is FGFR1 (Homo sapiens (Human), UniProt P11362). Nature of the experiment: FGFR biochemical assay (LanthaScreen TR-FRET kinase assay), FGFR1. A general note: TR-FRET usually uses a lanthanide donor and a delayed reading to cut background.
The target in another experiment is FGFR2 (Homo sapiens (Human), UniProt P21802). Nature of the experiment: FGFR biochemical assay (LanthaScreen TR-FRET kinase assay), FGFR2.
Chain of FGFR2 (P21802 22-821): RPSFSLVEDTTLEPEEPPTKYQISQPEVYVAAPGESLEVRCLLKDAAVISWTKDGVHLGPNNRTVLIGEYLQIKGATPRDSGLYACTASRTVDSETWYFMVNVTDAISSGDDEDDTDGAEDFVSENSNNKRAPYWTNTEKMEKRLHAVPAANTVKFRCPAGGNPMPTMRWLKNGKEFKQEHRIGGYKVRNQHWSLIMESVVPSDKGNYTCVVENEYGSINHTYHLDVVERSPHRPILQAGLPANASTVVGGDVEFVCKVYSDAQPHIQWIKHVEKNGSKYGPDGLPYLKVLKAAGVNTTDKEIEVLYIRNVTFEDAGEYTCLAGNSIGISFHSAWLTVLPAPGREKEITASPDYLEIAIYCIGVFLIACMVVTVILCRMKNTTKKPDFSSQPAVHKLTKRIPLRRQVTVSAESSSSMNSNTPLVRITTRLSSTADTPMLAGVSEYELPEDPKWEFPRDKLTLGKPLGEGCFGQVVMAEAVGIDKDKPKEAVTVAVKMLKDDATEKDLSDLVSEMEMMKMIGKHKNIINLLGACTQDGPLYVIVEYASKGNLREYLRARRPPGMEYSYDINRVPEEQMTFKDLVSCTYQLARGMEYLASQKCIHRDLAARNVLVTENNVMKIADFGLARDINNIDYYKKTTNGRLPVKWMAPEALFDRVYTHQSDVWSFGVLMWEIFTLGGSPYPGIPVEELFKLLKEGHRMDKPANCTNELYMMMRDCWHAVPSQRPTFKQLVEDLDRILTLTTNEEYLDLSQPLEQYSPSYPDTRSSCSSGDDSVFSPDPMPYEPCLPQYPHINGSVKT
Another experiment addresses FGFR3 (Homo sapiens (Human), UniProt P22607). Nature of the experiment: FGFR biochemical assay (LanthaScreen TR-FRET kinase assay), FGFR3.
The mark [1] stands for this setting: read-out: FGFR2 IC50, incubation with enzyme at room temperature for 10 minutes before substrate, ATP 22 μM, FGFR2 0.01 nM.
The mark [2] stands for this setting: read-out: FGFR3 IC50, incubation with enzyme at room temperature for 10 minutes before substrate, ATP 35 μM, FGFR3 0.1 nM.
[3] abbreviates: read-out: FGFR2 IC50, * incubation at room temperature for 60 minutes before addition of substrate solution, ATP 22 μM, FGFR2 0.01 nM.
[4] abbreviates: read-out: FGFR3 IC50, * incubation at room temperature for 60 minutes before addition of substrate solution, ATP 35 μM, FGFR3 0.1 nM.
[5] abbreviates: read-out: FGFR1 IC50, incubation with enzyme at room temperature for 10 minutes before substrate, ATP 28 μM, FGFR1 0.01 nM.

Each structure is given as a SMILES string. pIC50: −log10 of the molar value. Read-outs that look alike come from different tables or passages of the source.

Chain of FGFR1 (P11362 22-822): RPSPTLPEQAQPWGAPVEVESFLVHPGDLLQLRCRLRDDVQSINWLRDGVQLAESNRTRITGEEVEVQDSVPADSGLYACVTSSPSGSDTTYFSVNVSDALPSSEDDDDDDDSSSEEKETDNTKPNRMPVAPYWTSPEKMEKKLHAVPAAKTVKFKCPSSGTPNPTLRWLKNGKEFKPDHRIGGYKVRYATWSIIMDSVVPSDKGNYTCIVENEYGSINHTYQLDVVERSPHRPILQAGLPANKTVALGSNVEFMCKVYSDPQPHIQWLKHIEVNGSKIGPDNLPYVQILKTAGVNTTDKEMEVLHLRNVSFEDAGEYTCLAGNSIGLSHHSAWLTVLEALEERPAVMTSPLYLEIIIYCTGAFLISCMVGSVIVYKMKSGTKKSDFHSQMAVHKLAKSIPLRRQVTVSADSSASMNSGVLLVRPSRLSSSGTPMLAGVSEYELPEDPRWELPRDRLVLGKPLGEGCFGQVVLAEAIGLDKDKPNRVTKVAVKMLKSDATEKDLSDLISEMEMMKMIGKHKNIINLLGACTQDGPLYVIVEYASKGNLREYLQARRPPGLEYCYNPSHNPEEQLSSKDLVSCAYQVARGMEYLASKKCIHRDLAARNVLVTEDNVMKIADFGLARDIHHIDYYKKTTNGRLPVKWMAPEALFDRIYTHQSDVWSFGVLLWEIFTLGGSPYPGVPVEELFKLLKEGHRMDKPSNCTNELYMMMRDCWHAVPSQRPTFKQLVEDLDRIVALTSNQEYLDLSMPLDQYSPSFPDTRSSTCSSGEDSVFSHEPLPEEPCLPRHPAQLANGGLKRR
Chain of FGFR3 (P22607 23-806): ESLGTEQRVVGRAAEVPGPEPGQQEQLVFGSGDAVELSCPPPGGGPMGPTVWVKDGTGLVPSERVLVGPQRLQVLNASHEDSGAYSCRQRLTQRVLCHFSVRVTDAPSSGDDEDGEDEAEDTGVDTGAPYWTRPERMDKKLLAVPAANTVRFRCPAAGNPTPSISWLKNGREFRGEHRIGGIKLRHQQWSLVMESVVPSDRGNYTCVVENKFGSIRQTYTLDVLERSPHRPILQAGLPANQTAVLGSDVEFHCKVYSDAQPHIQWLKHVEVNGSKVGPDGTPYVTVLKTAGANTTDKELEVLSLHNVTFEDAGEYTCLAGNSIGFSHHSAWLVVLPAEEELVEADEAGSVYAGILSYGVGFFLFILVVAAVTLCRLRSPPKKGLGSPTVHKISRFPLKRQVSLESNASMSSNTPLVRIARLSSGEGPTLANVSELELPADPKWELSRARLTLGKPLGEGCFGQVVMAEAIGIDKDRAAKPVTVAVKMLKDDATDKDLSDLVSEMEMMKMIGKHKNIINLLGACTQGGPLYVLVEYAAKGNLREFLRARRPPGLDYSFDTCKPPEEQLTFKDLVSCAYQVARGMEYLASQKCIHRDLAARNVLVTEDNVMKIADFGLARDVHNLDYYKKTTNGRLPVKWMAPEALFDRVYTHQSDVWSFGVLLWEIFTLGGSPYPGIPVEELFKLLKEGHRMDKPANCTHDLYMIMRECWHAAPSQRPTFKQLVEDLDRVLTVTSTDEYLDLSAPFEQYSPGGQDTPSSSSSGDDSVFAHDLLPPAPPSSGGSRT
Method for FGFR1: (§1) Convert Ratio values to percent inhibition values (Percent inhibition=(max−sample Ratio)/(max−min)*100) where “min” means the Ratio of no enzyme control and “max” means the Ratio of DMSO control. • Data are analyzed and curve fitting is performed by XLFit Excel add-in version 5.4.0.8. The IC50 calculation equation is: Y=Bottom+(Top-Bottom)/(1+ (IC50/X)^HillSlope.
Method for FGFR2: as §1
Method for FGFR3: as §1

`C=C(F)C(=O)Nc1ccc(-c2c(-c3ccc(Oc4nccc(C)n4)c(F)c3)c(C(N)=O)c3cnc(C)cn23)cn1` [Example 51, 7-(3-fluoro-4-((4-methylpyrimidin-2-yl)oxy)phenyl)-6-(6-(2-fluoroacrylamido)pyridin-3-yl)-3-methylpyrrolo[1,2-a]pyrazine-8-carboxamide]: the pIC50 – broadly, the negative decadic logarithm of the IC50, by convention in mol/L – was 7.00 to 8.00 against FGFR1, more than 8.00 on FGFR2 (setting [1]) and 7.00 to 8.00 against FGFR3.

As to `C=CC(=O)Nc1ccc(-c2c(-c3ccc(Oc4nc(C)cs4)cc3)c(C(N)=O)c3cnccn23)cc1` [Example 19, 6-(4-acrylamidophenyl)-7-(4-((4-methylthiazol-2-yl)oxy)phenyl)pyrrolo[1,2-a]pyrazine-8-carboxamide], the figures for the pIC50 at FGFR1, on FGFR2 (setting [1]) and on FGFR3 were 7.00 to 8.00, more than 8.00 and 7.00 to 8.00, respectively.

Turning to `C=CC(=O)Nc1ccc(-c2c(-c3ccc(Oc4cccc(C)n4)cc3)c(C(N)=O)c3cnc(C4COC4)cn23)cc1` [Example 76, 6-(4-acrylamidophenyl)-7-(4-((6-methylpyridin-2-yl)oxy)phenyl)-3-(oxetan-3-yl)pyrrolo[1,2-a]pyrazine-8-carboxamide], the pIC50 against FGFR1 is 7.00 to 8.00; at FGFR2 (setting [1]), more than 8.00; at FGFR3 (setting [2]) it was more than 8.00.

For `C=C(F)C(=O)Nc1ccc(-c2c(-c3cc(F)c(Oc4nccc(C)n4)c(F)c3)c(C(N)=O)c3cnc(C)cn23)cc1` [Example 48, 7-(3,5-difluoro-4-((4-methylpyrimidin-2-yl)oxy)phenyl)-6-(4-(2-fluoroacrylamido)phenyl)-3-methylpyrrolo[1,2-a]pyrazine-8-carboxamide], the pIC50 against FGFR1 is 6.00 to 7.00; against FGFR2, 7.00 to 8.00; on FGFR3, 7.00 to 8.00.

Take `C=CC(=O)Nc1ccc(-c2c(-c3ccc(Oc4cccc(C)n4)cc3)c(C(N)=O)c3cnc(C4CN(C)C4)cn23)cc1` [Example 21, 6-(4-acrylamidophenyl)-3-(1-methylazetidin-3-yl)-7-(4-((6-methylpyridin-2-yl)oxy)phenyl)pyrrolo[1,2-a]pyrazine-8-carboxamide]: the negative logarithm of the IC50 (pIC50) against FGFR1 was 6.00 to 7.00; at FGFR2 (setting [1]), more than 8.00; on FGFR3, 7.00 to 8.00.

As to `C=C(F)C(=O)N1CCc2cc(-c3c(-c4ccc(Oc5nccc(C)n5)c(F)c4)c(C(N)=O)c4cnc(C)cn34)ccc21` [Example 72, 7-(3-fluoro-4-((4-methylpyrimidin-2-yl)oxy)phenyl)-6-(1-(2-fluoroacryloyl)indolin-5-yl)-3-methylpyrrolo[1,2-a]pyrazine-8-carboxamide], the pIC50 was 6.00 to 7.00 against FGFR1, more than 8.00 at FGFR2 (setting [3]) and 7.00 to 8.00 at FGFR3.

In the case of `C=CC(=O)Nc1ccc(-c2c(-c3ccc(Oc4cccc(C)n4)c(F)c3)c(C(N)=O)c3cnccn23)cc1` [Example 32, 6-(4-acrylamidophenyl)-7-(3-fluoro-4-((6-methylpyridin-2-yl)oxy)phenyl)pyrrolo[1,2-a]pyrazine-8-carboxamide], the negative logarithm of the IC50 (pIC50) against FGFR1 is 7.00 to 8.00; at FGFR2 (setting [1]), more than 8.00; on FGFR3 (setting [2]) it was more than 8.00.

As to `C=CC(=O)Nc1ccc(-c2c(-c3ccc(Oc4cccc(C)n4)cc3)c(C(N)=O)c3cnc(S(=O)(=O)NC)cn23)cc1` [Example 18, 6-(4-acrylamidophenyl)-7-(4-((6-methylpyridin-2-yl)oxy)phenyl)-3-(N-methylsulfamoyl)pyrrolo[1,2-a]pyrazine-8-carboxamide], the negative-log IC50 (pIC50) against FGFR1 was 6.00 to 7.00; on FGFR2 (setting [1]), more than 8.00; on FGFR3, 7.00 to 8.00.

For the compound `C=C(F)C(=O)Nc1ccc(-c2c(-c3ccc(C(=O)NCC4(F)COC4)cc3)c(C(N)=O)c3cnc(C)cn23)cc1` [Example 63, 6-(4-(2-fluoroacrylamido)phenyl)-7-(4-(((3-fluorooxetan-3-yl)methyl)carbamoyl)phenyl)-3-methylpyrrolo[1,2-a]pyrazine-8-carboxamide], the pIC50 against FGFR1 was 7.00 to 8.00; at FGFR2 (setting [3]) it was more than 8.00; against FGFR3, 7.00 to 8.00.

Turning to `C=C(F)C(=O)Nc1ccc(-c2c(-c3ccc(Oc4nccc(C)n4)cc3)c(C(N)=O)c3cnc(CCO)cn23)c(F)c1` [Example 81, 6-(2-fluoro-4-(2-fluoroacrylamido)phenyl)-3-(2-hydroxyethyl)-7-(4-((4-methylpyrimidin-2-yl)oxy)phenyl)pyrrolo[1,2-a]pyrazine-8-carboxamide], the negative logarithm of the IC50 (pIC50) is 7.00 to 8.00 on FGFR1, more than 8.00 on FGFR2 (setting [3]) and more than 8.00 at FGFR3 (setting [4]).

For the compound `C=C(F)C(=O)Nc1ccc(-c2c(-c3ccc(Oc4nccc(C)n4)cc3)c(C(N)=O)c3cnc(CCO)cn23)cc1` [Example 80, 6-(4-(2-fluoroacrylamido)phenyl)-3-(2-hydroxyethyl)-7-(4-((4-methylpyrimidin-2-yl)oxy)phenyl)pyrrolo[1,2-a]pyrazine-8-carboxamide], the values for the negative logarithm of the IC50 (pIC50) against FGFR1, on FGFR2 (setting [3]) and on FGFR3 were 6.00 to 7.00, more than 8.00 and 7.00 to 8.00, respectively.

As for `C=CC(=O)Nc1ccc(-c2c(-c3ccc(Oc4cccc(C)n4)cc3)c(C(N)=O)c3ccncn23)cc1` [Example 15, 7-(4-acrylamidophenyl)-6-(4-((6-methylpyridin-2-yl)oxy)phenyl)pyrrolo[1,2-c]pyrimidine-5-carboxamide], the pIC50 is 6.00 to 7.00 against FGFR1, more than 8.00 at FGFR2 (setting [1]) and 7.00 to 8.00 on FGFR3.

For `C=C(F)C(=O)Nc1ccc(-c2c(-c3ccc(Oc4nccc(C)n4)c(F)c3)c(C(N)=O)c3cc(-c4cnn(C)c4)ncn23)c(C)c1` [Example 92, 6-(3-fluoro-4-((4-methylpyrimidin-2-yl)oxy)phenyl)-7-(4-(2-fluoroacrylamido)-2-methylphenyl)-3-(1-methyl-1H-pyrazol-4-yl)pyrrolo[1,2-c]pyrimidine-5-carboxamide], the pIC50 against FGFR1 was 7.00 to 8.00; on FGFR2 (setting [3]), more than 8.00; on FGFR3 (setting [4]), more than 8.00.

With `C=C(F)C(=O)N1CCc2cc(-c3c(-c4ccc(Oc5nccc(C)n5)c(F)c4)c(C(N)=O)c4cnc(C)cn34)c(F)cc21` [Example 73, 6-(6-fluoro-1-(2-fluoroacryloyl)indolin-5-yl)-7-(3-fluoro-4-((4-methylpyrimidin-2-yl)oxy)phenyl)-3-methylpyrrolo[1,2-a]pyrazine-8-carboxamide], the figures for the pIC50 on FGFR1, at FGFR2 (setting [3]) and on FGFR3 (setting [4]) were 7.00 to 8.00, more than 8.00 and more than 8.00, respectively.

As to `C=CC(=O)Nc1cc(C)c(-c2c(-c3ccc(Oc4cccc(C)n4)cc3)c(C(N)=O)c3cnccn23)cn1` [Example 4, 6-(6-acrylamido-4-methylpyridin-3-yl)-7-(4-((6-methylpyridin-2-yl)oxy)phenyl)pyrrolo[1,2-a]pyrazine-8-carboxamide], the pIC50 on FGFR1, on FGFR2 and at FGFR3 was 7.00 to 8.00 each time.

In the case of `C=C(F)C(=O)Nc1ccc(-c2c(-c3ccc(Oc4ncc(F)c(C)n4)c(F)c3)c(C(N)=O)c3cnc(C)cn23)cc1` [Example 54, 7-(3-fluoro-4-((5-fluoro-4-methylpyrimidin-2-yl)oxy)phenyl)-6-(4-(2-fluoroacrylamido)phenyl)-3-methylpyrrolo[1,2-a]pyrazine-8-carboxamide], the pIC50 against FGFR1 is 6.00 to 7.00; on FGFR2, 7.00 to 8.00; on FGFR3, 7.00 to 8.00.

Take `C=CC(=O)Nc1ccc(-c2c(-c3ccc(Oc4nccc(C)n4)c(F)c3)c(C(N)=O)c3cnc(C)cn23)cn1` [Example 36, 6-(6-acrylamidopyridin-3-yl)-7-(3-fluoro-4-((4-methylpyrimidin-2-yl)oxy)phenyl)-3-methylpyrrolo[1,2-a]pyrazine-8-carboxamide]: the results for the pIC50 against FGFR1, at FGFR2 (setting [1]) and on FGFR3 (setting [2]) were 7.00 to 8.00, more than 8.00 and more than 8.00, respectively.

Regarding `C=CC(=O)N1CCc2cc(-c3c(-c4ccc(Oc5cccc(C)n5)cc4)c(C(N)=O)c4cnccn34)ccc21` [Example 14, 6-(1-acryloylindolin-5-yl)-7-(4-((6-methylpyridin-2-yl)oxy)phenyl)pyrrolo[1,2-a]pyrazine-8-carboxamide], the pIC50 at FGFR1 (setting [5]), at FGFR2 (setting [1]) and on FGFR3 (setting [2]) was more than 8.00 throughout.

For the compound `C=CC(=O)Nc1ccc(-c2c(-c3ccc(OC4CCCC4)cc3)c(C(N)=O)c3cnccn23)cc1` [Example 28, 6-(4-acrylamidophenyl)-7-(4-(cyclopentyloxy)phenyl)pyrrolo[1,2-a]pyrazine-8-carboxamide], the values for the pIC50 against FGFR1, on FGFR2 (setting [1]) and at FGFR3 (setting [2]) were 6.00 to 7.00, more than 8.00 and more than 8.00, respectively.

In the case of `C=CC(=O)Nc1ccc(-c2c(-c3ccc(C(=O)NCC4(F)COC4)cc3)c(C(N)=O)c3cnc(C)cn23)cc1` [Example 64, 6-(4-acrylamidophenyl)-7-(4-(((3-fluorooxetan-3-yl)methyl)carbamoyl)phenyl)-3-methylpyrrolo[1,2-a]pyrazine-8-carboxamide], the results for the pIC50 at FGFR1, at FGFR2 (setting [1]) and at FGFR3 (setting [2]) were 7.00 to 8.00, more than 8.00 and more than 8.00, respectively.

`C=C(C)C(=O)Nc1ccc(-c2c(-c3ccc(Oc4nccc(C)n4)c(F)c3)c(C(N)=O)c3cnccn23)cc1` [Example 34, 7-(3-fluoro-4-((4-methylpyrimidin-2-yl)oxy)phenyl)-6-(4-methacrylamidophenyl)pyrrolo[1,2-a]pyrazine-8-carboxamide]: the figures for the pIC50 at FGFR1 (setting [5]), against FGFR2 and against FGFR3 were less than 6.00, 6.00 to 7.00 and 6.00 to 7.00, respectively.
